What was measured:
[1] = test system: liver hepatocellular carcinoma cell line SNU-449; assay: MTS analysis, growth inhibition (GI50); assay type: cell-based
[2] = test system: liver hepatocellular carcinoma cell line Mahlavu; assay: MTS analysis, growth inhibition (GI50); assay type: cell-based; conditions: read-out: GI50, Mahlavu liver hepatocellular carcinoma cell line
[3] = test system: SNU-449 liver hepatocellular carcinoma cell line; assay: Western blot of apoptosis markers (cleaved caspase 8, cleaved PARP); assay type: cell-based; conditions: 0.3 μM, 0, 24, 48 and 72 hours
Protocol: SNU-449 liver hepatocellular carcinoma cell line was treated by 0.3 μM isothiocyanate structural modified compounds P1130 and PCH1152, and natural isothiocyanate compound PEITC, and the control group was treated by DSMO. After extracting the proteins in the cells at different time points, such as 0, 24, 48 and 72 hours, analysis and comparison were performed by using western blot. […] The results represent that the two structural modified compounds described above effectively promoted the apoptosis of the liver hepatocellular carcinoma cells (FIG. 1).

[4] = test system: Mahlavu liver hepatocellular carcinoma cell line; assay: Expression of ABCC2, Twist and Mcl-1 after treatment; assay type: cell-based; conditions: 2.5 μM, 64 hours
Text: (§1) The process of trans-differentiating epithelial cells into motile mesenchymal cells is called epithelial-mesenchymal transition (EMT). EMT is indispensable in development, wound healing and stem cell behavior, and may induce fibrosis and carcinogenesis pathologically. In addition, EMT plays an important role in liver fibrosis, liver cirrhosis and liver hepatocellular carcinoma. […] Moreover, EMT may increase the anti-apoptosis effect, which will result in the development of drug resistance in cancer treatment, and induce the development of stemness of the cancer cells, as well as increase the number of cancer stem cells. The cancer stem cell is one of the important factors in the progression, recurrence, metastasis and drug resistance of the cancer. There is an evidence that in the samples of the liver hepatocellular carcinoma patients with poor prognosis, the overexpressions of Twist and Snail were observed. […] The results above represent that isothiocyanate structural modified compound of the present disclosure may prevent liver carcinogenesis and the growth, invasion, metastasis, progression and recurrence of liver hepatocellular carcinoma via inhibiting epithelial-mesenchymal transition, anti-apoptosis and/or inhibiting drug resistance.

[5] = test system: SNU-449 liver hepatocellular carcinoma cell line; assay: as above; assay type: cell-based; conditions: 2.5 μM, 64 hours
Text: as §1

[6] = test system: liver hepatocellular carcinoma cell line SNU-449; assay: MTS assay cell growth, selectivity test; assay type: cell-based
[7] = test system: human normal liver cell line THLE-2; assay: MTS assay cell growth, selectivity test; assay type: cell-based
Text: Preferable small molecule anticancer drugs must have higher selectivity to cancer cells, thereby reducing the toxicity and side effects in the normal cells and the dosage being taken. The selectivity of isothiocyanate structural modified compound of the present disclosure to liver hepatocellular carcinoma cells was examined by using human normal liver cell line THLE-2 and liver hepatocellular carcinoma cell line SNU-449. After treating liver hepatocellular carcinoma cell line and normal liver cell line by isothiocyanate structural modified compounds P1130 or PCH1152, the cell growth was evaluated by MTS assay.

[8] = test system: SNU-449 liver hepatocellular carcinoma cell line; assay: Western blot, apoptosis and ABCC2/Mcl-1/Twist expression; assay type: cell-based; conditions: low concentration
[9] = test system: human normal liver cell line THLE-2; assay: as above; assay type: cell-based; conditions: low concentration
[10] = test system: Mahlavu liver hepatocellular carcinoma cell line subcutaneous tumor; assay: Mouse xenograft model, oral PCH1152; assay type: in vivo, nude mice; conditions: 0.6 mg/mouse/day orally
Protocol: Seven days after subcutaneously injecting 1×10^6 Mahlavu liver hepatocellular carcinoma cell line into nude mice, PCH1152 (0.6 mg/mouse/day) began to be orally administered to the mice. After continuously administrating the drug orally for 45 days, the mice were sacrificed and their subcutaneous tumor were taken and analyzed.

[11] = test system: Antimycin A-induced ROS in LX-2 cells; assay: Removal of Antimycin A-induced ROS, DHE fluorescence; assay type: cell-based; conditions: 2.5 μM PCH1152, 24 hours
Text: ROS was examined by DHE fluorescence, and the difference between each group was compared by Tukey's Multiple Comparison Test.

[12] = test system: Hepatitis B virus-induced ROS in Huh-7 cells; assay: Removal of HBV-induced ROS, DHE fluorescence; assay type: cell-based, human; conditions: Huh-7 transfected with pGEM C12, 5 μM PCH1152, 10 μM NAC
Protocol: To examine the effect of PCH1152, NAC or the combination thereof on removing HBV-induced ROS, the Huh-7 cells were remained untreated, or treated with 5 μM PCH1152, 10 μM NAC or 5 μM PCH 1152 plus 10 μM NAC. The ROS was examined by DHE fluorescence, and the difference between each group was compared by Tukey's Multiple Comparison Test.

[13] = test system: liver tumor in Hepatitis B virus (HBV) transgenic mouse; assay type: in vivo
Protocol: To examine the incidence rate of mouse liver tumor under long-term PCH1152 administration, PCH1152 was added into the drinking water of the mice when the mice were three-month-old, and the drinking water was replaced every 7 to 14 days. The termination of the experiment was set at 19 months, and the blood of the mice started to be collected every 2 to 3 months when the mice were 9-month-old, and the ALT values of the serum were measured. When the ALT of the serum were higher than 150 U/L twice in a row, the mice were sacrificed and the developments of the liver tumors thereof were observed.

[14] = assay type: physicochemical; conditions: after 16 days
[15] = test system: hepatic lipid accumulation and fibrosis in HBV transgenic mouse liver; assay: Oil Red and Sirius Red staining of liver tissue; assay type: in vivo; conditions: treated mice without liver hepatocellular carcinoma vs control group
[16] = test system: P62 and LC3B in HBV transgenic mouse liver tissue; assay: Autophagy markers in liver tissue, western blot; assay type: in vivo
Protocol: The liver tissues of the mice with or without liver hepatocellular carcinoma in the example 7 were analyzed by western blot (FIG. 8A), and quantitative analysis was performed via Image J software (FIG. 8B). P62 protein accumulated in the cells when the autophagy was forbidden, and it was degraded when the autophagy started-up. Therefore, P62 protein may be a biomarker of autophagy. […] Moreover, LC3B protein is the subunit of the microtubule-related protein, which has different protein isomers. After the autophagy being started, LC3B I isomer will be transformed into LC3B II isomer. […] The results above indicate that PCH1152 may enhance autophagy, i.e. may inhibit abnormal “anti-autophagy” effect, thereby preventing the development of liver hepatocellular carcinoma. **p<0.01; ***p<0.001; unpaired t-test.

[17] = test system: liver hepatocellular carcinoma cell line with Nexavar drug resistance; assay: Protein expression and apoptosis in drug-resistant cell line; assay type: cell-based
Text: WT: wild-type liver hepatocellular carcinoma cell line. R: Nexavar-drug resistance-liver hepatocellular carcinoma cell line.
After treating liver hepatocellular carcinoma cell line with Nexavar drug resistance by PCH1130 or PCH1152, the expressions of molecules such as USP22, ABCC1, ABCC2 and Twist in liver hepatocellular carcinoma may be decreased, and the expressions of cleaved Caspase-8 and PARP may be increased, which induced the apoptosis of liver hepatocellular carcinoma cells.

[18] = Safety test, median lethal dose (LD50), intravenous injection; assay type: in vivo; conditions: in vivo, mouse
Protocol: (§2) The mouse xenograft model of liver hepatocellular carcinoma was administered with different concentrations of PCH1152 or P1130 via intravenous injection, and the median lethal dose (LD50) was calculated by the number of death and dosage.

[19] = test system: mouse xenograft model of liver hepatocellular carcinoma; assay: as above; assay type: in vivo
Protocol: as §2

[20] = long-term treatment in drinking water

For Oc1ccc(CCN=C=S)cc1 [PCH1152], the GI50 ([1]; Homo sapiens, SNU-449, read-out: GI50, SNU-449 liver hepatocellular carcinoma cell line) was 890 nM, the “increase of the ability of inhibiting the growth of the liver hepatocellular carcinoma cell line” value ([1]; compared to natural isothiocyanate compounds BITC or PEITC) was 12 times and the GI50 [2] was 1540 nM. The “expression levels of cleaved caspase 8 and cleaved PARP” value [3] was “significantly increased”, the “expressions of ABCC2, Twist and Mcl-1” value [4] was “inhibition” and the “expressions of ABCC2, Twist and Mcl-1” value [5] was “inhibition”. For the same compound, the “cell viability of liver hepatocellular carcinoma cell line” value ([6]; MTS assay, SNU-449) was “substantially decreased”, the “selectivity between liver hepatocellular carcinoma cell and normal liver cell” value ([6]; SNU-449 vs THLE-2, MTS assay) was “better cell growth inhibition selectivity” and the “effect on cell viability of human normal liver cell line” value [7] was “not significant”. For the same compound, the “apoptosis of liver hepatocellular carcinoma cell line” value [8] was “promote apoptosis”, the “expressions of ABCC2, Mcl-1 and Twist” value [8] was “inhibit the expressions” and the “apoptosis promotion and inhibition of ABCC2, Mcl-1, Twist in human normal liver cell line” value [9] was “no such effect”. The “death of mice during the experiment” value ([10]; 45 days) was “No mouse dead”, the “effect on daily food intake” value ([10]; 45 days) was “did not have any significant effect” and the “effect on mouse weight” value ([10]; 45 days) was “did not have any significant effect”. For the same compound, the “value of ALT in the mouse” value ([10]; 45 days) was “decrease”, the subcutaneous tumor volume ([10]; 45 days, vs control group) was “significantly smaller” and the “expressions of ABCC1, USP22 and Mcl-1 in subcutaneous tumor” value ([10]; western blot) was “significant lower”. For the same compound, the “Antimycin A-induced ROS increasement” value [11] was “significantly reduce”, the “HBV-induced ROS increasement” value [12] was “significantly reduce” and the “reduction of the incidence rate of liver tumor” value ([13]; compared to control group) was “more than 30%”. For the same compound, the “age at which serum ALT increased to over 150 U/L in 50% of the mice” value ([13]; control group 19.5-month old) was 21 month old, the “volume of the liver tumor” value ([13]; long-term treatment) was “significantly decrease” and the “weight of the liver tumor” value ([13]; long-term treatment) was “significantly decrease”. For the same compound, the “impact on daily food intake” value [13, 20] was “did not have any significant impact”, the “impact on daily water intake” value [13, 20] was “did not have any significant impact” and the impact on weight [13, 20] was “did not have any significant impact”. For the same compound, the “structural stability in the drinking water of the mice” value [14] was “higher than 98%”, the “region of the lipid accumulation in liver tissue” value ([15]; Oil Red) was “reduced significantly” and the “region of fibrosis in liver tissue” value ([15]; Sirius Red) was “reduced significantly”. For the same compound, the effect on autophagy ([16]; liver tissue) was “significantly enhance autophagy”, the “P62 protein in liver tissue (ratio of P62 and Hsc70)” value ([16]; treated mouse without carcinoma vs mouse developing carcinoma, western blot) was “significantly lower” and the “ratio of LC3B II and LC3B I” value ([16]; vs control group, western blot) was “higher”. The “effect on drug resistance in liver hepatocellular carcinoma” value [17] was “reversing the drug resistance”, the “expressions of USP22, ABCC1, ABCC2 and Twist” value [17] was “decreased” and the “expressions of cleaved Caspase-8 and PARP” value [17] was “increased”. For the same compound, the LD50 [18] was 30 to 100 mg/kg and the “toxicity relative to existing anticancer drug, e.g. Taxotere” value [19] was “comparable”.

From patent publication US20240139142A1, “METHOD FOR PREVENTING OR TREATING LIVER DISEASE” (priority 2022, published 2024)
